Measurements reported in US12485122B2, “Combination of palbociclib and adagrasib for lung cancer” (Mirati Therapeutics, Inc., priority 2018, dated 2025).

Tests used:
Assay type in all cases: in vivo, nude/nude mice
[1] = system: SW1573 cells; experiment: SW1573 tumor bearing mice, single agents and combination; conditions: for tumor growth inhibition: Day 28, single agent, Compound 478 100 mg/kg or palbociclib 130 mg/kg p.o. daily; for Average Tumor Volume: Compound 478 100 mg/kg, palbociclib 130 mg/kg, 7 mice averaged
Method: (§1) Immunocompromised nude/nude mice were inoculated in the right hind flank with cells or patient derived tumor samples harboring a KRas G12C mutation. When tumor volumes reached between 200-400 mm^3 in size, the mice were divided into four groups of 5-12 mice each. The first group was administered vehicle only. […] The fourth group was administered the single agent dose of the KRas G12C inhibitor in combination with the single agent dose of the CDK 4/6 inhibitor. […] Tumor volumes were measured using a caliper every two-three days and tumor volumes are calculated by the formula: […].
For example, 28 nude/nude mice were inoculated in the right hind limb with 5×10^6 SW1573 cells.

[2] = system: H2122 cells; experiment: H2122 tumor bearing mice, single agents and combination; conditions: for tumor growth inhibition: Day 23, single agent, Compound 478 100 mg/kg or palbociclib 130 mg/kg p.o. daily; for Average Tumor Volume: Compound 478 100 mg/kg, palbociclib 130 mg/kg, 5 mice averaged
Method: as §1
Similarly, 20 nude/nude mice were inoculated in the right hind limb with 5×10^6 H2122 cells.

[3] = system: LU6405 cells; experiment: LU6405 tumor bearing mice, single agents and combination; conditions: for Average Tumor Volume: Compound 478 100 mg/kg, palbociclib 130 mg/kg, 5 mice averaged
Method: as §1
In another experiment, on Day 0, 20 nude/nude mice were inoculated in the right hind limb with 5×10^6 LU6405 cells.

[4] = Study Day 23, p.o. daily for 21 days
[5] = Study Day 22, p.o. daily for 21 days
[6] = Study Day 24, p.o. daily for 21 days

CC(=O)c1c(C)c2cnc(Nc3ccc(N4CCNCC4)cn3)nc2n(C2CCCC2)c1=O [Palbociclib, 6-acetyl-8-cyclopentyl-5-methyl-2-((5-(piperazin-1-yl)pyridin-2-yl)amino)pyrido[2,3-d]pyrimidin-7(8H)-one]
tumor growth inhibition [1]: 40%
Average Tumor Volume ([1]; Study Day 0, p.o. daily): 356 mm^3
Average Tumor Volume ([1]; Study Day 3, p.o. daily): 444 mm^3
Average Tumor Volume ([1]; Study Day 6, p.o. daily): 484 mm^3
Average Tumor Volume ([1]; Study Day 9, p.o. daily): 508 mm^3
Average Tumor Volume ([1]; Study Day 11, p.o. daily): 515 mm^3
Average Tumor Volume ([1]; Study Day 14, p.o. daily): 748 mm^3
Average Tumor Volume ([1]; Study Day 16, p.o. daily): 807 mm^3
Average Tumor Volume ([1]; Study Day 18, p.o. daily): 706 mm^3
Average Tumor Volume ([1]; Study Day 21, p.o. daily): 926 mm^3
Average Tumor Volume ([1]; Study Day 23, p.o. daily): 1029 mm^3
Average Tumor Volume ([1]; Study Day 25, p.o. daily): 1167 mm^3
Average Tumor Volume ([1]; Study Day 28, p.o. daily): 1240 mm^3
tumor growth inhibition [2]: 65%
Average Tumor Volume ([2]; Study Day 0, p.o. daily): 326 mm^3
Average Tumor Volume ([2]; Study Day 2, p.o. daily): 385 mm^3
Average Tumor Volume ([2]; Study Day 4, p.o. daily): 493 mm^3
Average Tumor Volume ([2]; Study Day 7, p.o. daily): 601 mm^3
Average Tumor Volume ([2]; Study Day 9, p.o. daily): 646 mm^3
Average Tumor Volume ([2]; Study Day 11, p.o. daily): 663 mm^3
Average Tumor Volume ([2]; Study Day 14, p.o. daily): 748 mm^3
Average Tumor Volume ([2]; Study Day 16, p.o. daily): 765 mm^3
Average Tumor Volume ([2]; Study Day 18, p.o. daily): 790 mm^3
Average Tumor Volume ([2]; Study Day 21, p.o. daily): 836 mm^3
Average Tumor Volume [2, 4]: 834 mm^3
Average Tumor Volume ([3]; Study Day 1, p.o. daily): 255.36 mm^3
Average Tumor Volume ([3]; Study Day 4, p.o. daily): 440.79 mm^3
Average Tumor Volume ([3]; Study Day 8, p.o. daily): 659.01 mm^3
Average Tumor Volume ([3]; Study Day 11, p.o. daily): 834.95 mm^3
Average Tumor Volume ([3]; Study Day 15, p.o. daily): 1165.80 mm^3
Average Tumor Volume ([3]; Study Day 18, p.o. daily): 1295.57 mm^3
Average Tumor Volume [3, 5]: 1363.40 mm^3
Average Tumor Volume [3, 6]: 1382.59 mm^3

C=C(F)C(=O)N1CCN(c2nc(OC[C@@H]3CCCN3C)nc3c2CCN(c2cccc4cccc(Cl)c24)C3)C[C@@H]1CC#N [Compound 478]
tumor growth inhibition [1]: 71%
Average Tumor Volume ([1]; Study Day 0, p.o. daily): 357 mm^3
Average Tumor Volume ([1]; Study Day 6, p.o. daily): 404 mm^3
Average Tumor Volume ([1]; Study Day 9, p.o. daily): 435 mm^3
Average Tumor Volume ([1]; Study Day 14, p.o. daily): 523 mm^3
Average Tumor Volume ([1]; Study Day 16, p.o. daily): 575 mm^3
Average Tumor Volume ([1]; Study Day 18, p.o. daily): 607 mm^3
Average Tumor Volume ([1]; Study Day 21, p.o. daily): 754 mm^3
Average Tumor Volume ([1]; Study Day 23, p.o. daily): 758 mm^3
Average Tumor Volume ([1]; Study Day 25, p.o. daily): 741 mm^3
Average Tumor Volume ([1]; Study Day 28, p.o. daily): 785 mm^3
tumor growth inhibition [2]: 85%
Average Tumor Volume ([2]; Study Day 0, p.o. daily): 325 mm^3
Average Tumor Volume ([2]; Study Day 2, p.o. daily): 340 mm^3
Average Tumor Volume ([2]; Study Day 4, p.o. daily): 338 mm^3
Average Tumor Volume ([2]; Study Day 7, p.o. daily): 381 mm^3
Average Tumor Volume ([2]; Study Day 9, p.o. daily): 462 mm^3
Average Tumor Volume ([2]; Study Day 11, p.o. daily): 480 mm^3
Average Tumor Volume ([2]; Study Day 14, p.o. daily): 493 mm^3
Average Tumor Volume ([2]; Study Day 16, p.o. daily): 541 mm^3
Average Tumor Volume ([2]; Study Day 18, p.o. daily): 537 mm^3
Average Tumor Volume ([2]; Study Day 21, p.o. daily): 547 mm^3
Average Tumor Volume [2, 4]: 547 mm^3
tumor growth inhibition ([3]; Day 24, single agent, Compound 478 100 mg/kg p.o. daily): 96%
Average Tumor Volume ([3]; Study Day 1, p.o. daily): 256.06 mm^3
Average Tumor Volume ([3]; Study Day 4, p.o. daily): 308.98 mm^3
Average Tumor Volume ([3]; Study Day 8, p.o. daily): 324.46 mm^3
Average Tumor Volume ([3]; Study Day 11, p.o. daily): 329.09 mm^3
Average Tumor Volume ([3]; Study Day 15, p.o. daily): 310.21 mm^3
Average Tumor Volume ([3]; Study Day 18, p.o. daily): 290.88 mm^3
Average Tumor Volume [3, 5]: 257.34 mm^3
Average Tumor Volume [3, 6]: 249.19 mm^3
